# pIC50: −log10 of the molar value. Like-named read-outs stand apart in the source and are kept apart here.
# Key:
# Aiolos [1] = experiment: Aiolos protein level in whole blood leukocyte subsets, flow cytometry; format: cell-based, human; details: 1, 10, 100 nM, 18 hrs; CD19+ B cells, CD3+ T cells, CD14+ monocytes, granulocytes
# Protocol: (§1) Human heparinized whole blood from normal healthy volunteers (Bioreclamation, Westbury, N.Y.) was treated with 0.1% DMSO and Compound 1A (1, 10, 100 nM) for 18 hrs at 37° C., 5% CO2. After 18 hrs, the blood was lysed and fixed with 1× Lyse/Fix Buffer (BD Biosciences) for 10 minutes at 37° C. Washed cells with cold PBS and cells were first multicolor stained with mouse anti-human CD3-PE mAb, mouse anti-human CD19-APC mAb and mouse anti-human-CD14-PerCP mAb (all from BD Biosciences) to identify CD3+ T cells, CD19+ B cells and CD14+ monocytes, respectively. The cells were then permeabilized by adding BD Perm/Wash Buffer I. Blocked non-specific binding by added FcR Blocking Reagent (Miltenyi Biotech) for 10 minutes prior to staining for intracellular Aiolos or Ikaros content. The cells were then stained with rabbit anti-human Aiolos polyclonal Ab (Santa Cruz, 1:200 dilution in Perm/Wash Buffer) or anti-human Ikaros polyclonal Ab (Santa Cruz, 1:50 dilution in Perm/Wash Buffer), followed by a goat-anti-rabbit mAb-AF488 Ab (Invitrogen, at 1:400 dilution in Perm/Wash Buffer) to test the intracellular Aiolos or Ikaros levels. […] Aiolos and Ikaros protein levels in B cells, T cells, monocytes and granulocytes were analyzed by FACSCanto with FACSDiva 6 (BD Biosciences) based on the gating of CD3+ cells, CD19+ cells, CD14+ cells and granulocytes (FSC/SSC). […]
# Ikaros = Ikaros protein level in whole blood leukocyte subsets, flow cytometry; format: cell-based, human; details: 1, 10, 100 nM, 18 hrs; CD19+ B cells, CD3+ T cells, CD14+ monocytes, granulocytes
# Protocol: as §1
# [2] = test system: anti-dsDNA autoantibodies, SLE PBMC; experiment: Anti-dsDNA autoantibody production in cultures of SLE PBMC (ELISA); format: cell-based; details: Homo sapiens, N=9
# Protocol: (§2) PBMCs were purified from human buffy coats using Ficoll-Paque method. CD19+ B cells were isolated from PBMC by following EasySep Human B cell enrichment cocktail protocol (StemCell Technologies Catalog #19054). Fresh B cell cocktail was prepared by adding 50 μg/mL of human transferrin to B cell medium (Iscove's medium with 10% PFBS, 1% P/S, and 5 μg/mL human insulin). The required volume of medium needed for the experiment was filtered through a 0.22 micron filter. B cell differentiation cocktail (final concentration): recombinant human Interleukin (IL)-2 (20 U/mL), IL-10 (50 ng/mL), IL-15 (10 ng/mL), CD40 Ligand/TNFSF5/histidine-tagged (50 ng/mL), polyHistidine mouse IgG1 antibody (5 μg/mL), and ODN 2006-Human TLR9 ligand (10 μg/mL). CD19+ cells were pretreated with Compound 1A or a Syk inhibitor or 0.1% DMSO for 1 hr, then incubated with B-cell differentiation medium for indicated times.
# (§3) Whole blood samples from patients identified with SLE were obtained from Sanguine Biosciences; Inc. the blood was diluted with sterile Dulbecco's phosphate buffered saline solution (DPBS) and placed into three 50-mL conical tubes. […] Cell culture supernatants were harvested and analyzed for autoantibodies using an Anti-double stranded DNA antibody ELISA kit (Orgentec ORG 604S) and an Anti-Cardiolipin/Phospholipid ELISA kit (Orgentec ORG-529).
# [3] = test system: anti-phospholipid autoantibodies, SLE PBMC; experiment: Anti-phospholipid autoantibody production in cultures of SLE PBMC (ELISA); format: cell-based; details: Homo sapiens, N=8
# Protocol: as §2, §3
# Aiolos [4] = experiment: B cell intracellular Aiolos after single doses in healthy volunteers; format: in vivo, human
# Protocol: (§4) Healthy volunteers were administered placebo (n=10) or Compound 1A at doses of 0.03 mg, 0.1 mg, 0.3 mg, 1 mg, or 2 mg (N=6 each). Blood samples were drawn prior to dosing, or 3 hr, 12 hr, and 24 hr after dosing. Blood samples were lysed and fixed immediately by mixing 1 volume of blood with 20 volumes of 1× Lyse/Fix buffer (BD Biosciences, cat#558049) and mixing thoroughly by inverting the tube several times. This sample mix was incubated in a 37° C. water bath for 10 minutes, and the cells were pelleted by centrifugation at 800×g for 5 minutes to remove the supernatant by aspiration. The cells were washed twice with 2 mL of cold phosphate buffer saline (PBs), then permeabilized by adding 2 mL of cold BD Cytofix/cytoperm buffer and incubated on ice for 15 minutes. The cells were centrifuged than washed twice with BD perm/wash buffer, then resuspended in 40 ul of BD perm/wash buffer. Cells were stained with anti-CD3 or anti-CD19 antibody, and 20 ul of anti-Aiolos Ab (Santa Cruz Santa Cruz, rabbit polyclonal IgG, cat #sc-101982 at 1:200 dilution with staining buffer), or 20 uL of appropriate isotype controls to cells. Cells were mixed thoroughly and incubated at room temperature for 30 minutes in the dark, washed once with BD perm/wash buffer, then resuspended in 80 ul of BD perm/wash buffer, and 20 uL of secondary antibody was added before analysis on a flow cytometer.
# Aiolos [5] = experiment: T cell intracellular Aiolos after single doses in healthy volunteers; format: in vivo, human; details: 12 hours postdose
# Protocol: as §4
# CD19+ B cells = experiment: Peripheral blood B cell counts in healthy volunteers; format: in vivo; details: Homo sapiens
# Protocol: as §4, with “Blood samples were drawn prior to dosing, or 3 hr, 12 hr, and 24 hr after dosing.” left out
# Absolute B cell counts in the peripheral blood were measured by flow cytometry with anti-CD19 antibody as described above.
# CD3+ T cells = experiment: Peripheral blood T cell counts in healthy volunteers; format: in vivo, human
# Protocol: as §4
# Absolute T cell counts in the peripheral blood were measured by flow cytometry with anti-CD3 antibody as described above.
# IL-2 = experiment: Ex vivo IL-2 production in anti-CD3-stimulated whole blood of dosed healthy volunteers; design: species or system human; details: 12 hours postdose on Day 1
# Text: Whole blood was stimulated with anti-CD3 antibody and analyzed for IL-2 using the CD3 TruCulture system (Part number 782-001202) by Myriad Rules Based Medicine (Austin, Tex.).
# IL-1β = experiment: Ex vivo IL-1β production in lipopolysaccharide-stimulated whole blood of dosed healthy volunteers; design: species or system human; details: 12 hours postdose
# Text: Whole blood was stimulated with lipopolysachharide and analyzed for IL-1β using the LPS TruCulture system (Part number 782-001087) by Myriad Rules Based Medicine (Austin, Tex.).
compound,measurement,setting,value
"O=C1CC[C@H](N2Cc3c(OCc4ccc(CN5CCOCC5)cc4)cccc3C2=O)C(=O)N1 [Compound 1A, (S)-3-[4-(4-morphlin-4-ylmethylbenzyloxy)-1-oxo-1,3-dihydro-isoindo-2-yl]piperidine-2,6-dione]",Aiolos protein levels in whole blood leukocyte subsets,Aiolos [1],reduced
same,Ikaros protein levels in whole blood leukocyte subsets,Ikaros,reduced
same,pIC50,[2],~8.00
same,pIC50,[3],~8.00
same,"B cell intracellular Aiolos, percent of baseline","Aiolos [4]; 0.3 mg single dose, 24 hours postdose",24.8%
same,"B cell intracellular Aiolos, percent of baseline","Aiolos [4]; 1 mg single dose, 12 hours postdose",28.2%
same,"B cell intracellular Aiolos, percent of baseline","Aiolos [4]; 2 mg single dose, 12 hours postdose",25.0%
same,"T cell intracellular Aiolos, percent of baseline",Aiolos [5]; 1 mg single dose,22.3%
same,"T cell intracellular Aiolos, percent of baseline",Aiolos [5]; 2 mg single dose,26.1%
same,Emax,"CD19+ B cells; 48 h, 1 mg, Day 2, read-out: absolute CD19+ cells, mean percent of baseline (maximum response)",67.3%
same,Emax,"CD19+ B cells; 72 h, 0.3 mg, Day 3, read-out: absolute CD19+ cells, mean percent of baseline (maximum response)",73.5%
same,Emax,"CD19+ B cells; 72 h, 2 mg, Day 3, read-out: absolute CD19+ cells, mean percent of baseline (maximum response)",51.3%
same,"peripheral blood T cell counts, percent of baseline","CD3+ T cells; 0.3 mg, Day 2",84.1%
same,"peripheral blood T cell counts, percent of baseline","CD3+ T cells; 1 mg, Day 2",79.4%
same,"peripheral blood T cell counts, percent of baseline","CD3+ T cells; 2 mg, Day 5",73.8%
same,"maximum IL-2, mean percent of baseline",IL-2; 0.3 mg,315%
same,"maximum IL-2, mean percent of baseline",IL-2; 1 mg,973%
same,"maximum IL-2, mean percent of baseline",IL-2; 2 mg,915%
same,"maximum IL-1β response, mean percent of baseline",IL-1β; 0.3 mg,42.2%
same,"maximum IL-1β response, mean percent of baseline",IL-1β; 1 mg,21.8%
same,"maximum IL-1β response, mean percent of baseline",IL-1β; 2 mg,16.3%

# Reference: patent US10980812B2, “3-(4-((4-(morpholinomethyl-benzyl)oxy)-1 -oxoisoindolin-2-yl)piperidine-2,6-dione for the treatment of systemic lupus erythematosus” (Celgene Corporation, priority 2014, dated 2021)
